# Patent publication US9593149B2, “Amylin and calcitonin receptor agonist” (Novo Nordisk A/S, priority 2014, dated 2017)
# Numbered stars: 1 amine (or outer) side, 2 acyl side, 3 side chain; on linkers, the order of the positions; unused ones are H or OH. Side chains are listed from the residue outwards. Peptide text beside a SMILES is read from it. * marks the point of attachment. C20 diacid = O=C(O)CCCCCCCCCCCCCCCCCCC(=O)*; C18 diacid = O=C(O)CCCCCCCCCCCCCCCCC(=O)*; γGlu = O=C(O)[C@H](CCC(=O)[*:2])N[*:1]
# Assays:
# [1] = Assay (IX) pK, T½ in mini-pig; format: in vivo, Göttingen mini-pigs; conditions: i.v.
# Procedure, shortened: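 Female Göttingen mini-pigs (5–12 months, 15–35 kg, fed freely) received a single i.v. dose of approximately 5 nmol/kg via central venous catheter, typically n=3. Plasma was sampled from pre-dose to 240 h (sometimes 288 h) and quantified by LC-MS. T½ was derived by non-compartmental analysis from the terminal log-linear slope (ln2/λz).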
# [2] = biological target: T1, human amylin receptor (Amylin 3(a)/CRE-luc cell membranes) (Homo sapiens, UniProt O60896+P30988); test: Assay (V) binding to the human amylin receptor (membrane, SPA); conditions: 125I-rat amylin, read-out: hAmylin-R binding IC50
# T1 construct: host or cells: BHK570
# T1 sequence (P30988 25-474): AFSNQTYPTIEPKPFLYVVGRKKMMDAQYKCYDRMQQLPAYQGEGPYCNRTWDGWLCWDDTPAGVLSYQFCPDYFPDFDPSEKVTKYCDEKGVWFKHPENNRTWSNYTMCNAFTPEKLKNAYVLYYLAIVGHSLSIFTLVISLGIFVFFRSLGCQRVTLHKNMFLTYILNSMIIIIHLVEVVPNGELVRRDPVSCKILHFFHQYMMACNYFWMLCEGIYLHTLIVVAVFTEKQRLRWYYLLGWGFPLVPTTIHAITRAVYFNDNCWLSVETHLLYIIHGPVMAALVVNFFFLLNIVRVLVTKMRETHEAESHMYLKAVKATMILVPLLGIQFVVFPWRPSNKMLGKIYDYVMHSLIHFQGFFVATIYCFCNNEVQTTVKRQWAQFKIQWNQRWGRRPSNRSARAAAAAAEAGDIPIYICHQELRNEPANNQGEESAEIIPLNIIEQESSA
# T1 sequence (O60896 24-148 partner): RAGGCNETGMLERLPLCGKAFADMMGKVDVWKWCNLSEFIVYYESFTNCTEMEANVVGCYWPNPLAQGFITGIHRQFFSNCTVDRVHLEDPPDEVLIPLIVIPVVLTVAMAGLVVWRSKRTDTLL
# Method: The binding assay was performed using scintillation proximity assay (SPA) beads (RPNQ0001) from PerkinElmer and cell membranes from the Amylin 3(a)/CRE-luc cells (as described in Assay (II)) were used. Membranes were prepared in the following way; the cells were rinsed with PBS and incubated with Versene for approximately 5 min before harvesting. The cells were flushed with PBS and the cell-suspension was centrifuged for 5 min at 1000 rpm. Cells were homogenized (ultrathurrax) in a buffer containing 20 mM Na-HEPES and 10 mM EDTA (pH 7.4) and centrifuged at 20.000 rpm for 15 min. The resulting pellet was resuspended, homogenized and centrifuged (20.000 rpm, 15 min) in a buffer containing 20 mM Na-HEPES and 0.1 mM EDTA (pH 7.4, buffer 2). The resulting pellet was resuspended in buffer 2 and protein concentration was tested (BCA protein Assay, Pierce). The homogenate was kept cold during the whole procedure. The membranes were kept at −80° C. until use. The assay was performed in a 384 well Optiplate (PerkinElmer) in a total volume of 40 ul. Membranes were mixed with SPA beads. Final concentration of membranes 35 ng/μL final and SPA beads was 0.05 mg/well. […] Samples were analyzed on TopCounter™ (Packard). The IC50 was calculated using (one site binding competition analysis) GraphPad Prism5 as a measure of receptor affinity.
smiles,measurement,setting,value
"CC(C)C[C@H](NC(=O)[C@H](C)NC(=O)[C@H](C)NC(=O)[C@@H](NC(=O)[C@H](CO)NC(=O)[C@H](CC(C)C)NC(=O)[C@H](CCC(=O)O)NC(=O)[C@H](CO)NC(=O)[C@H](C)NC(=O)[C@H](CCC(=O)O)NC(=O)CCCCCCCCCCCCCCCCC(=O)O)[C@@H](C)O)C(=O)NCC(=O)N[C@@H](CCCNC(=N)N)C(=O)N[C@@H](CC(C)C)C(=O)N[C@@H](CO)C(=O)N[C@@H](C)C(=O)N[C@@H](CCC(=O)O)C(=O)N[C@@H](CC(C)C)C(=O)N[C@@H](Cc1cnc[nH]1)C(=O)N[C@@H](CCC(=O)O)C(=O)N[C@@H](CC(C)C)C(=O)N[C@@H](C)C(=O)N[C@H](C(=O)N[C@@H](CC(C)C)C(=O)N1CCC[C@H]1C(=O)N[C@@H](CCCNC(=N)N)C(=O)N[C@H](C(=O)N[C@@H](CCC(=O)O)C(=O)N[C@H](C(=O)NCC(=O)N1CCC[C@H]1C(=O)N[C@@H](CCC(=O)O)C(=O)N[C@@H](CO)C(=O)N1CCC[C@H]1C(N)=O)[C@@H](C)O)[C@@H](C)O)[C@@H](C)O [Ex. #2, [N-terminal(C18 diacid)]mimylin] ({C18 diacid}-EASELSTAALGRLSAELHELATLPRTETGPESP-NH2)",PK mini pig iv T½,[1],85 h
"CC(=O)N[C@@H](C)C(=O)N[C@@H](CO)C(=O)N[C@@H](CCCCNC(=O)CC[C@H](NC(=O)CCCCCCCCCCCCCCCCCCC(=O)O)C(=O)O)C(=O)N[C@@H](CC(C)C)C(=O)N[C@@H](CO)C(=O)N[C@H](C(=O)N[C@@H](C)C(=O)N[C@@H](C)C(=O)N[C@@H](CC(C)C)C(=O)NCC(=O)N[C@@H](CCCNC(=N)N)C(=O)N[C@@H](CC(C)C)C(=O)N[C@@H](CO)C(=O)N[C@@H](C)C(=O)N[C@@H](CCC(=O)O)C(=O)N[C@@H](CC(C)C)C(=O)N[C@@H](Cc1c[nH]cn1)C(=O)N[C@@H](CCC(=O)O)C(=O)N[C@@H](CC(C)C)C(=O)N[C@@H](C)C(=O)N[C@H](C(=O)N[C@@H](CC(C)C)C(=O)N1CCC[C@H]1C(=O)N[C@@H](CCCNC(=N)N)C(=O)N[C@H](C(=O)N[C@@H](CCC(=O)O)C(=O)N[C@H](C(=O)NCC(=O)N[C@@H](CO)C(=O)NCC(=O)N[C@@H](CO)C(=O)N1CCC[C@H]1C(N)=O)[C@@H](C)O)[C@@H](C)O)[C@@H](C)O)[C@@H](C)O [compound 68, [N-terminal(acetyl), des1, 4K(C20 diacid-gGlu), 30S, 31G]mimylin] (Ac-ASK([γGlu-C20 diacid])LSTAALGRLSAELHELATLPRTETGSGSP-NH2)",IC50,[2],0.05 nM
"CC(C)C[C@H](NC(=O)[C@H](CCC(=O)O)NC(=O)[C@H](C)NC(=O)[C@@H](NC(=O)[C@H](CC(C)C)NC(=O)[C@H](CCCNC(=N)N)NC(=O)CNC(=O)[C@H](CC(C)C)NC(=O)[C@@H](NC(=O)[C@H](C)NC(=O)[C@@H](NC(=O)[C@@H](NC(=O)[C@H](CC(C)C)NC(=O)[C@H](CCC(=O)O)NC(=O)[C@H](CO)NC(=O)[C@H](C)NC(=O)CC[C@H](NC(=O)CCCCCCCCCCCCCCCCC(=O)O)C(=O)O)[C@@H](C)O)[C@@H](C)O)C(C)C)[C@@H](C)O)C(=O)N[C@@H](Cc1c[nH]cn1)C(=O)N[C@@H](CCC(=O)O)C(=O)N[C@@H](CC(C)C)C(=O)N[C@@H](CCC(=O)O)C(=O)N[C@H](C(=O)N[C@@H](CC(C)C)C(=O)N1CCC[C@H]1C(=O)N[C@@H](CCCNC(=N)N)C(=O)N[C@H](C(=O)N[C@@H](CCC(=O)O)C(=O)N[C@H](C(=O)NCC(=O)N[C@H](C(=O)NCC(=O)N[C@H](C(=O)N1CCC[C@H]1C(N)=O)[C@@H](C)O)[C@@H](C)O)[C@@H](C)O)[C@@H](C)O)[C@@H](C)O [compound 105, [N-terminal(C18 diacid-gGlu), des1, 6T, 9V, 14T, 21E, 30T, 31G, 32T]mimylin] ({C18 diacid-γGlu}-ASELTTAVLGRLTAELHELETLPRTETGTGTP-NH2)",IC50,[2],0.309 nM
